Data on two compounds can be found in patent US8980792B2, “Compositions comprising abscisic acid and a fungicidally active compound” (Syngenta Participations AG, priority 2010, dated 2015).

In this assay the test system is Mycosphaerella graminicola (Septoria tritici). Put plainly: Septoria tritici leaf spot on wheat, preventative foliar spray test. The assay is classed as in vivo. An excerpt:
Mycosphaerella graminicola (Septoria tritici)/Wheat/Preventative (Septoria tritici Leaf Spot on Wheat)
The isopyrazam is formulated as an emulsion concentrate formulation and mixed with water to form a stock solution and ultrasonically agitated in order to achieve homogeneous distribution. Spray solutions are made up from the stock solution by dilution in water/isopropanol (10% isopropanol v/v), with abscisic acid added where needed as a tank mix to the diluted stock solution, and mechanically stirred just before spraying. Foliar application is at 200 L/ha using an application device spraying with a single nozzle (Lechler type) 60 cm above the plants. Typically two-week old wheat plants cv. Riband are sprayed with the spray solution in the spray chamber of the application device. The test plants are inoculated by spraying a spore suspension on them one day after application. After an incubation period of 1 day at typically 22° C./21° C. (day/night) and 95% rh, the inoculated test plants are kept at typically 22° C./21° C. (day/night) and 70% rh in a greenhouse. Percentage efficacy is assessed by direct visual comparison to untreated check plants when an appropriate level of disease appears on the untreated checks (typically 14-19 days after application).

Each structure is given as a SMILES string.

On to `CC1=CC(=O)CC(C)(C)[C@@]1(O)/C=C/C(C)=C\C(=O)O` [Abscisic acid], for which the “% Disease Control” value is reported as 0% (abscisic acid 0.0025 % w/v alone, foliar spray 200 L/ha, wheat) and 0% (abscisic acid 0.0238 % w/v alone, foliar spray 200 L/ha, wheat).
`CC(C)C1C2CCC1c1c(NC(=O)c3cn(C)nc3C(F)F)cccc12` (stereo not shown) [Isopyrazam]: the “% Disease Control” value reads like this: (isopyrazam 2.44 mg/ml alone) 3%; (isopyrazam 9.77 mg/ml alone) 10%; (isopyrazam 39.06 mg/ml alone) 50%; (isopyrazam 156.25 mg/ml alone) 67%; (isopyrazam 625.00 mg/ml alone) 80%.
